{"source": "ChEMBL document CHEMBL5550222", "about": "“Synthesis and Biological Evaluation of Novel Psidium Meroterpenoid Derivatives against Cisplatin-Induced Acute Kidney Injury” (J Med Chem, 2024)", "key": {"[1]": {"experiment": "MRT (0 to infinity) in ICR mouse 50 mg/kg, po measured for 24 hrs by HPLC-MS analysis", "type": "ADME, organism-based", "details": "in vivo"}, "[2]": {"experiment": "MRT (0 to t) in ICR mouse 50 mg/kg, po measured for 24 hrs by HPLC-MS analysis", "type": "ADME, organism-based", "details": "in vivo"}, "[3]": {"experiment": "Acute toxicity in C57BL/6J mouse assessed as small intestine damage at 1 g/Kg, po measured for 2 weeks by H and E staining based analysis", "type": "organism-based", "details": "in vivo, 1000 mg/kg, 336 h"}, "[4]": {"experiment": "MRT (0 to t) in ICR mouse 1 mg/kg, iv measured for 24 hrs by HPLC-MS analysis", "type": "ADME, organism-based", "details": "in vivo"}, "[5]": {"experiment": "Acute toxicity in C57BL/6J mouse assessed as brain damage at 1 g/Kg, po measured for 2 weeks by H and E staining based analysis", "type": "organism-based", "details": "in vivo, 1000 mg/kg, 336 h"}, "Cell membrane": {"system": "Cell membrane", "experiment": "Induction of mitochondrial membrane potential loss in human HK-2 cells assessed as increase in ATP5A1 expression by Western blot analysis", "type": "cell membranes", "details": "dose 2.5-10 µM"}, "[6]": {"experiment": "AUC (0 to t) in ICR mouse 50 mg/kg, po measured for 24 hrs by HPLC-MS analysis", "type": "ADME, organism-based", "details": "in vivo"}, "[7]": {"experiment": "Oral bioavailability in ICR mouse 50 mg/kg measured for 24 hrs by HPLC-MS analysis", "type": "ADME, organism-based", "details": "in vivo"}, "[8]": {"experiment": "Acute toxicity in C57BL/6J mouse assessed as abnormal behavior at 1 g/Kg, po measured for 2 weeks", "type": "organism-based", "details": "in vivo, 1000 mg/kg, 336 h"}, "[9]": {"experiment": "Clearance in ICR mouse 1 mg/kg, iv measured for 24 hrs by HPLC-MS analysis", "type": "ADME, organism-based", "details": "in vivo"}, "[10]": {"experiment": "Acute toxicity in C57BL/6J mouse assessed as animal death at 1 g/Kg, po measured for 2 weeks", "type": "organism-based", "details": "in vivo, 1000 mg/kg, 336 h"}, "[11]": {"experiment": "Acute toxicity in C57BL/6J mouse assessed as heart damage at 1 g/Kg, po measured for 2 weeks by H and E staining based analysis", "type": "organism-based", "details": "in vivo, 1000 mg/kg, 336 h"}, "[12]": {"experiment": "AUC (0 to infinity) in ICR mouse 1 mg/kg, iv measured for 24 hrs by HPLC-MS analysis", "type": "ADME, organism-based", "details": "in vivo"}, "[13]": {"experiment": "Terminal half life in ICR mouse 50 mg/kg, po measured for 24 hrs by HPLC-MS analysis", "type": "ADME, organism-based", "details": "in vivo, read-out: beta t1/2 (converted)"}, "[14]": {"experiment": "Acute toxicity in C57BL/6J mouse assessed as lung damage at 1 g/Kg, po measured for 2 weeks by H and E staining based analysis", "type": "organism-based", "details": "in vivo, 1000 mg/kg, 336 h"}, "[15]": {"experiment": "MRT (0 to infinity) in ICR mouse 1 mg/kg, iv measured for 24 hrs by HPLC-MS analysis", "type": "ADME, organism-based", "details": "in vivo"}, "[16]": {"experiment": "Acute toxicity in C57BL/6J mouse assessed as stomach damage at 1 g/Kg, po measured for 2 weeks by H and E staining based analysis", "type": "organism-based", "details": "in vivo, 1000 mg/kg, 336 h"}, "HK-2 [17]": {"system": "HK-2", "experiment": "Protection against cisplatin-induced nephrotoxicity in human HK-2 cells at 1 to 10 uM preincubated with compound for 2 hrs followed by cisplatin induction and measured after 72 hrs by MTT assay", "type": "functional, cell-based", "details": "dose 1-10 µM, time 74.0 hrs"}, "[18]": {"experiment": "AUC (0 to t) in ICR mouse 1 mg/kg, iv measured for 24 hrs by HPLC-MS analysis", "type": "ADME, organism-based", "details": "in vivo"}, "Mus musculus [19]": {"system": "Mus musculus", "experiment": "Protection against cisplatin-induced nephrotoxicity in C57BL6/J mouse assessed as reduction in SCR level in kidney at 100 mg/kg, po preadministered with compound for 2 days followed by cisplatin addition on day 3 and measured 72 hrs post cisplatin administration", "type": "functional, organism-based", "details": "time 5.0 day"}, "Mus musculus [20]": {"system": "Mus musculus", "experiment": "Protection against cisplatin-induced nephrotoxicity in C57BL6/J mouse assessed as reduction in BUN level in kidney at 100 mg/kg, po preadministered with compound for 2 days followed by cisplatin addition on day 3 and measured 72 hrs post cisplatin administration", "type": "functional, organism-based", "details": "time 5.0 day"}, "[21]": {"experiment": "Volume of distribution in ICR mouse 1 mg/kg, iv measured for 24 hrs by HPLC-MS analysis", "type": "ADME, organism-based", "details": "in vivo"}, "[22]": {"experiment": "AUC (0 to infinity) in ICR mouse 50 mg/kg, po measured for 24 hrs by HPLC-MS analysis", "type": "ADME, organism-based", "details": "in vivo"}, "[23]": {"experiment": "Acute toxicity in C57BL/6J mouse assessed as liver damage at 1 g/Kg, po measured for 2 weeks by H and E staining based analysis", "type": "organism-based", "details": "in vivo, 1000 mg/kg, 336 h"}, "Lewis lung carcinoma": {"system": "Lewis lung carcinoma", "experiment": "Antitumor activity against cisplatin-induced mouse Lewis lung carcinoma cell line xenografted in po dosed C57BL/6J mouse assessed as reduction in BUN level in serum preadministered with compound for 2 days followed by cisplatin addition on day 3 and measured 72 hrs post cisplatin administration", "type": "functional, organism-based", "details": "dose 25-100 mg/kg, time 5.0 day"}, "[24]": {"experiment": "Cmax in ICR mouse 1 mg/kg, iv measured for 24 hrs by HPLC-MS analysis", "type": "ADME, organism-based", "details": "in vivo"}, "[25]": {"experiment": "Acute toxicity in C57BL/6J mouse assessed as ovary damage at 1 g/Kg, po measured for 2 weeks by H and E staining based analysis", "type": "organism-based", "details": "in vivo, 1000 mg/kg, 336 h"}, "HK-2 [26]": {"system": "HK-2", "experiment": "Effect on CTR1 mRNA level in human HK-2 cells by transcriptome sequencing analysis", "type": "functional, cell-based"}, "[27]": {"experiment": "Acute toxicity in C57BL/6J mouse assessed as kidney damage at 1 g/Kg, po measured for 2 weeks by H and E staining based analysis", "type": "organism-based", "details": "in vivo, 1000 mg/kg, 336 h"}, "[28]": {"experiment": "Terminal half life in ICR mouse 1 mg/kg, iv measured for 24 hrs by HPLC-MS analysis", "type": "ADME, organism-based", "details": "in vivo, read-out: beta t1/2 (converted)"}, "HK-2 [29]": {"system": "HK-2", "experiment": "Induction of autophagy in human HK-2 cells assessed as upregulation of p62 expression at 2.5 to 10 uM by Western blotting analysis", "type": "functional, cell-based", "details": "dose 2.5-10 µM"}, "[30]": {"experiment": "Acute toxicity in C57BL/6J mouse assessed as spleen damage at 1 g/Kg, po measured for 2 weeks by H and E staining based analysis", "type": "organism-based", "details": "in vivo, 1000 mg/kg, 336 h"}, "[31]": {"experiment": "Cmax in ICR mouse 50 mg/kg, po measured for 24 hrs by HPLC-MS analysis", "type": "ADME, organism-based", "details": "in vivo"}, "HK-2 [32]": {"system": "HK-2", "experiment": "Protection against cisplatin-induced nephrotoxicity in human HK-2 cells at 5 to 10 uM preincubated with compound for 2 hrs followed by cisplatin induction and measured after 72 hrs by MTT assay", "type": "functional, cell-based", "details": "dose 5-10 µM, time 74.0 hrs"}, "HK-2 [33]": {"system": "HK-2", "experiment": "Protection against cisplatin-induced nephrotoxicity in human HK-2 cells assessed as cell viability at 10 uM preincubated with compound for 2 hrs followed by cisplatin induction and measured after 72 hrs by MTT assay (reference value: 45.1 +/- 3.2%)", "type": "functional", "details": "time 74 hrs, read-out: Activity"}, "HK-2 [34]": {"system": "HK-2", "experiment": "Protection against cisplatin-induced nephrotoxicity in human HK-2 cells increase in viability at 10 uM preincubated with compound for 2 hrs followed by cisplatin induction and measured after 72 hrs by MTT assay (reference value: 45.1%)", "type": "functional", "details": "time 74 hrs"}, "HK-2 [35]": {"system": "HK-2", "experiment": "Protection against cisplatin-induced nephrotoxicity in human HK-2 cells preincubated with compound for 2 hrs followed by cisplatin induction and measured after 72 hrs by MTT assay", "type": "functional, cell-based", "details": "dose 1-10 µM, time 74.0 hrs"}, "[36]": {"experiment": "Cytotoxicity against human HK-2 cells incubated for 72 hrs by MTT assay", "type": "toxicity, cell-based"}, "HK-2 [37]": {"system": "HK-2", "experiment": "Protection against cisplatin-induced nephrotoxicity in human HK-2 cells assessed as cell viability at 5 uM preincubated with compound for 2 hrs followed by cisplatin induction and measured after 72 hrs by MTT assay (reference value: 45.1 +/- 3.2%)", "type": "functional", "details": "time 74 hrs, read-out: Activity"}}, "note": "Active and inactive are the calls of the source. The rule behind the calls is not given here.", "data": [{"smiles": "COc1c(CO)c(OC)c(C(=O)c2ccccc2)c2c1C[C@H]1CC/C(C)=C/CC(C)(C)/C=C/C[C@]1(C)O2", "values": [{"measurement": "MRT inf", "setting": "[1]", "result": 3.21, "unit": "h"}, {"measurement": "MRT last at 24 h", "setting": "[2]", "result": 2.29, "unit": "h"}, {"measurement": "Activity", "setting": "[3]", "result": "Non-Toxic"}, {"measurement": "MRT last at 24 h", "setting": "[4]", "result": 1.59, "unit": "h"}, {"measurement": "Activity", "setting": "[5]", "result": "Non-Toxic"}, {"measurement": "Activity", "setting": "Cell membrane", "result": "Active"}, {"measurement": "AUC(0-t) at 24 h", "setting": "[6]", "result": 783, "unit": "ng·h/mL"}, {"measurement": "bioavailability", "setting": "[7]", "result": 11.9, "unit": "%"}, {"measurement": "Activity", "setting": "[8]", "result": "Non-Toxic"}, {"measurement": "clearance", "setting": "[9]", "result": 114, "unit": "mL/min/kg"}, {"measurement": "Activity", "setting": "[10]", "result": "Non-Toxic"}, {"measurement": "Activity", "setting": "[11]", "result": "Non-Toxic"}, {"measurement": "AUC(0-inf)", "setting": "[12]", "result": 146, "unit": "ng·h/mL"}, {"measurement": "half-life", "setting": "[13]", "result": 2.5, "unit": "h"}, {"measurement": "Activity", "setting": "[14]", "result": "Non-Toxic"}, {"measurement": "MRT inf", "setting": "[15]", "result": 2.22, "unit": "h"}, {"measurement": "Activity", "setting": "[16]", "result": "Non-Toxic"}, {"measurement": "Activity", "setting": "HK-2 [17]", "result": "Active"}, {"measurement": "AUC(0-t) at 24 h", "setting": "[18]", "result": 137, "unit": "ng·h/mL"}, {"measurement": "Activity", "setting": "Mus musculus [19]", "result": "Active"}, {"measurement": "Activity", "setting": "Mus musculus [20]", "result": "Active"}, {"measurement": "Vd", "setting": "[21]", "result": 24.4, "unit": "L/kg"}, {"measurement": "AUC(0-inf)", "setting": "[22]", "result": 869, "unit": "ng·h/mL"}, {"measurement": "Activity", "setting": "[23]", "result": "Non-Toxic"}, {"measurement": "Activity", "setting": "Lewis lung carcinoma", "result": "Active"}, {"measurement": "Cmax", "setting": "[24]", "result": 485, "unit": "ng/mL"}, {"measurement": "Activity", "setting": "[25]", "result": "Non-Toxic"}, {"measurement": "Activity", "setting": "HK-2 [26]", "result": "inactive"}, {"measurement": "Activity", "setting": "[27]", "result": "Non-Toxic"}, {"measurement": "half-life", "setting": "[28]", "result": 2.47, "unit": "h"}, {"measurement": "Activity", "setting": "HK-2 [29]", "result": "Active"}, {"measurement": "Activity", "setting": "[30]", "result": "Non-Toxic"}, {"measurement": "Cmax", "setting": "[31]", "result": 266, "unit": "ng/mL"}]}, {"smiles": "COc1c(C=O)c(OC)c(C(=O)c2ccccc2)c2c1CC1CC/C(C)=C/CC(C)(C)/C=C/CC1(C)O2", "note": "(stereo not drawn)", "values": [{"measurement": "Activity", "setting": "Cell membrane", "result": "Active"}, {"measurement": "Activity", "setting": "HK-2 [32]", "result": "Active"}, {"measurement": "viability at 10 µM", "setting": "HK-2 [33]", "result": 90.6, "unit": "%"}, {"measurement": "Activity", "setting": "Lewis lung carcinoma", "result": "Active"}, {"measurement": "Activity", "setting": "HK-2 [34]", "result": ">90", "unit": "%"}, {"measurement": "Activity", "setting": "HK-2 [35]", "result": "Dose-Dependent Effect"}, {"measurement": "IC50 at 72 h", "setting": "[36]", "result": "> 10", "unit": "µM"}, {"measurement": "viability at 5 µM", "setting": "HK-2 [37]", "result": 82.8, "unit": "%"}, {"measurement": "Activity", "setting": "HK-2 [26]", "result": "inactive"}, {"measurement": "Activity", "setting": "HK-2 [29]", "result": "Active"}]}]}
